Reference: BindingDB's records for doi:10.1016/s0960-894x(01)00323-7 (Kyoto University, 2001)

Assays:
[1] = Inhibitory concentration determined on an HIV infection model mediated by CXCR4
[2] = Effective concentration for 50% protection of HIV-induced cytopathogenicity in MT-4 cells on the MTT assay
[3] = as above; remark: listed apart in the source

| SMILES | IC50 [1] [nM] | EC50 [2] [nM] | EC50 [3] [nM] |
| --- | --- | --- | --- |
| NCCCC[C@@H]1NC(=O)[C@H](CCCN=C(N)N)NC(=O)[C@H](Cc2ccc(O)cc2)NC(=O)[C@@H](NC(=O)[C@@H](NC(=O)[C@H](CCCN=C(N)N)NC(=O)[C@@H](N)CCCN=C(N)N)c2ccc3ccccc3c2)CSSC[C@@H](C(=O)N[C@@H](CCCN=C(N)N)C(=O)O)NC(=O)[C@H](CCCNC(N)=O)NC(=O)[C@H](CCCN=C(N)N)NC(=O)[C@H](Cc2ccc(O)cc2)NC(=O)[C@@H]2CCCN2C(=O)[C@@H](CCCCN)NC1=O [Compound T140] | 10 | 3.3 |  |
| NCCCC[C@@H]1NC(=O)[C@H](CCCN=C(N)N)NC(=O)[C@H](Cc2ccc(O)cc2)NC(=O)[C@@H](NC(=O)[C@@H](NC(=O)[C@H](CCCN=C(N)N)NC(=O)[C@@H](N)CCCN=C(N)N)c2ccc3ccccc3c2)CSSC[C@@H](C(=O)N[C@@H](CCCN=C(N)N)C(=O)O)NC(=O)[C@H](CCCNC(N)=O)NC(=O)[C@H](CCCNC(N)=O)NC(=O)[C@H](Cc2ccc(O)cc2)NC(=O)[C@@H]2CCCN2C(=O)[C@@H](CCCNC(N)=O)NC1=O [Derivative of T140 peptide] |  | 7.8 |  |
| NCCCC[C@@H]1NC(=O)[C@H](CCCN=C(N)N)NC(=O)[C@H](Cc2ccc(O)cc2)NC(=O)[C@@H](NC(=O)[C@@H](NC(=O)[C@H](CCCN=C(N)N)NC(=O)[C@@H](N)CCCN=C(N)N)c2ccc3ccccc3c2)CSSC[C@@H](C(=O)N[C@@H](CCCN=C(N)N)C(N)=O)NC(=O)[C@H](CCCNC(N)=O)NC(=O)[C@H](CCCN=C(N)N)NC(=O)[C@H](Cc2ccc(O)cc2)NC(=O)[C@@H]2CCCN2C(=O)[C@@H](CCCCN)NC1=O [Derivative of T140 peptide] |  | 72 |  |
| NCCCC[C@@H]1NC(=O)[C@H](CCCN=C(N)N)NC(=O)[C@H](Cc2ccc(O)cc2)NC(=O)[C@@H](NC(=O)[C@@H](NC(=O)[C@H](CCCN=C(N)N)NC(=O)[C@@H](N)CCCN=C(N)N)c2ccc3ccccc3c2)CSSC[C@@H](C(=O)N[C@@H](CCCN=C(N)N)C(N)=O)NC(=O)[C@H](CCCNC(N)=O)NC(=O)[C@H](CCCN=C(N)N)NC(=O)[C@H](Cc2ccc(O)cc2)NC(=O)[C@@H]2CCCN2C(=O)[C@@H](CCCNC(N)=O)NC1=O [Derivative of T140 peptide] | 24 |  | 4.6 |
| NCCCC[C@@H]1NC(=O)[C@H](CCCN=C(N)N)NC(=O)[C@H](Cc2ccc(O)cc2)NC(=O)[C@@H](NC(=O)[C@@H](NC(=O)[C@H](CCCN=C(N)N)NC(=O)[C@@H](N)CCCN=C(N)N)c2ccc3ccccc3c2)CSSC[C@@H](C(=O)N[C@@H](CCCN=C(N)N)C(N)=O)NC(=O)[C@H](CCCNC(N)=O)NC(=O)[C@H](CCCNC(N)=O)NC(=O)[C@H](Cc2ccc(O)cc2)NC(=O)[C@@H]2CCCN2C(=O)[C@@H](CCCNC(N)=O)NC1=O [Derivative of T140 peptide] |  | 2.7 |  |
| NCCCC[C@@H]1NC(=O)[C@H](CCCN=C(N)N)NC(=O)[C@H](Cc2ccc(O)cc2)NC(=O)[C@@H](NC(=O)[C@@H](NC(=O)[C@H](CCCN=C(N)N)NC(=O)[C@@H](N)CCCNC(N)=O)c2ccc3ccccc3c2)CSSC[C@@H](C(=O)N[C@@H](CCCN=C(N)N)C(=O)O)NC(=O)[C@H](CCCNC(N)=O)NC(=O)[C@H](CCCN=C(N)N)NC(=O)[C@H](Cc2ccc(O)cc2)NC(=O)[C@@H]2CCCN2C(=O)[C@@H](CCCNC(N)=O)NC1=O [Derivative of T140 peptide] |  | 36 |  |
| NCCCC[C@@H]1NC(=O)[C@H](CCCN=C(N)N)NC(=O)[C@H](Cc2ccc(O)cc2)NC(=O)[C@@H](NC(=O)[C@@H](NC(=O)[C@H](CCCN=C(N)N)NC(=O)[C@@H](N)CCCNC(N)=O)c2ccc3ccccc3c2)CSSC[C@@H](C(=O)N[C@@H](CCCN=C(N)N)C(=O)O)NC(=O)[C@H](CCCNC(N)=O)NC(=O)[C@H](CCCNC(N)=O)NC(=O)[C@H](Cc2ccc(O)cc2)NC(=O)[C@@H]2CCCN2C(=O)[C@@H](CCCCN)NC1=O [Derivative of T140 peptide] |  | 68 |  |
| NCCCC[C@@H]1NC(=O)[C@H](CCCN=C(N)N)NC(=O)[C@H](Cc2ccc(O)cc2)NC(=O)[C@@H](NC(=O)[C@@H](NC(=O)[C@H](CCCN=C(N)N)NC(=O)[C@@H](N)CCCNC(N)=O)c2ccc3ccccc3c2)CSSC[C@@H](C(=O)N[C@@H](CCCN=C(N)N)C(N)=O)NC(=O)[C@H](CCCNC(N)=O)NC(=O)[C@H](CCCN=C(N)N)NC(=O)[C@H](Cc2ccc(O)cc2)NC(=O)[C@@H]2CCCN2C(=O)[C@@H](CCCNC(N)=O)NC1=O [Derivative of T140 peptide] |  | 1.2 |  |
| NCCCC[C@@H]1NC(=O)[C@H](CCCN=C(N)N)NC(=O)[C@H](Cc2ccc(O)cc2)NC(=O)[C@@H](NC(=O)[C@@H](NC(=O)[C@H](CCCN=C(N)N)NC(=O)[C@@H](N)CCCNC(N)=O)c2ccc3ccccc3c2)CSSC[C@@H](C(=O)N[C@@H](CCCN=C(N)N)C(N)=O)NC(=O)[C@H](CCCNC(N)=O)NC(=O)[C@H](CCCNC(N)=O)NC(=O)[C@H](Cc2ccc(O)cc2)NC(=O)[C@@H]2CCCN2C(=O)[C@@H](CCCCN)NC1=O [Derivative of T140 peptide] |  | 40 |  |
| NCCCC[C@@H]1NC(=O)[C@H](CCCNC(N)=O)NC(=O)[C@H](Cc2ccc(O)cc2)NC(=O)[C@@H](NC(=O)[C@@H](NC(=O)[C@H](CCCN=C(N)N)NC(=O)[C@@H](N)CCCN=C(N)N)c2ccc3ccccc3c2)CSSC[C@@H](C(=O)N[C@@H](CCCN=C(N)N)C(=O)O)NC(=O)[C@H](CCCNC(N)=O)NC(=O)[C@H](CCCN=C(N)N)NC(=O)[C@H](Cc2ccc(O)cc2)NC(=O)[C@@H]2CCCN2C(=O)[C@@H](CCCCN)NC1=O [Derivative of T140 peptide] | 8 |  | 2.8 |
| NCCCC[C@@H]1NC(=O)[C@H](CCCNC(N)=O)NC(=O)[C@H](Cc2ccc(O)cc2)NC(=O)[C@@H](NC(=O)[C@@H](NC(=O)[C@H](CCCN=C(N)N)NC(=O)[C@@H](N)CCCN=C(N)N)c2ccc3ccccc3c2)CSSC[C@@H](C(=O)N[C@@H](CCCN=C(N)N)C(=O)O)NC(=O)[C@H](CCCNC(N)=O)NC(=O)[C@H](CCCN=C(N)N)NC(=O)[C@H](Cc2ccc(O)cc2)NC(=O)[C@@H]2CCCN2C(=O)[C@@H](CCCNC(N)=O)NC1=O [Derivative of T140 peptide] | 51 |  | 0.5 |
| NCCCC[C@@H]1NC(=O)[C@H](CCCNC(N)=O)NC(=O)[C@H](Cc2ccc(O)cc2)NC(=O)[C@@H](NC(=O)[C@@H](NC(=O)[C@H](CCCN=C(N)N)NC(=O)[C@@H](N)CCCN=C(N)N)c2ccc3ccccc3c2)CSSC[C@@H](C(=O)N[C@@H](CCCN=C(N)N)C(=O)O)NC(=O)[C@H](CCCNC(N)=O)NC(=O)[C@H](CCCNC(N)=O)NC(=O)[C@H](Cc2ccc(O)cc2)NC(=O)[C@@H]2CCCN2C(=O)[C@@H](CCCCN)NC1=O [Derivative of T140 peptide] |  | 8.9 |  |
| NCCCC[C@@H]1NC(=O)[C@H](CCCNC(N)=O)NC(=O)[C@H](Cc2ccc(O)cc2)NC(=O)[C@@H](NC(=O)[C@@H](NC(=O)[C@H](CCCN=C(N)N)NC(=O)[C@@H](N)CCCN=C(N)N)c2ccc3ccccc3c2)CSSC[C@@H](C(=O)N[C@@H](CCCN=C(N)N)C(N)=O)NC(=O)[C@H](CCCNC(N)=O)NC(=O)[C@H](CCCN=C(N)N)NC(=O)[C@H](Cc2ccc(O)cc2)NC(=O)[C@@H]2CCCN2C(=O)[C@@H](CCCCN)NC1=O [Derivative of T140 peptide] | 12 |  | 0.6 |
| NCCCC[C@@H]1NC(=O)[C@H](CCCNC(N)=O)NC(=O)[C@H](Cc2ccc(O)cc2)NC(=O)[C@@H](NC(=O)[C@@H](NC(=O)[C@H](CCCN=C(N)N)NC(=O)[C@@H](N)CCCN=C(N)N)c2ccc3ccccc3c2)CSSC[C@@H](C(=O)N[C@@H](CCCN=C(N)N)C(N)=O)NC(=O)[C@H](CCCNC(N)=O)NC(=O)[C@H](CCCN=C(N)N)NC(=O)[C@H](Cc2ccc(O)cc2)NC(=O)[C@@H]2CCCN2C(=O)[C@@H](CCCNC(N)=O)NC1=O [Derivative of T140 peptide] | 19 |  | 0.4 |
| NCCCC[C@@H]1NC(=O)[C@H](CCCNC(N)=O)NC(=O)[C@H](Cc2ccc(O)cc2)NC(=O)[C@@H](NC(=O)[C@@H](NC(=O)[C@H](CCCN=C(N)N)NC(=O)[C@@H](N)CCCN=C(N)N)c2ccc3ccccc3c2)CSSC[C@@H](C(=O)N[C@@H](CCCN=C(N)N)C(N)=O)NC(=O)[C@H](CCCNC(N)=O)NC(=O)[C@H](CCCNC(N)=O)NC(=O)[C@H](Cc2ccc(O)cc2)NC(=O)[C@@H]2CCCN2C(=O)[C@@H](CCCCN)NC1=O [Derivative of T140 peptide] |  | 6.8 |  |
| NCCCC[C@@H]1NC(=O)[C@H](CCCNC(N)=O)NC(=O)[C@H](Cc2ccc(O)cc2)NC(=O)[C@@H](NC(=O)[C@@H](NC(=O)[C@H](CCCN=C(N)N)NC(=O)[C@@H](N)CCCNC(N)=O)c2ccc3ccccc3c2)CSSC[C@@H](C(=O)N[C@@H](CCCN=C(N)N)C(=O)O)NC(=O)[C@H](CCCNC(N)=O)NC(=O)[C@H](CCCN=C(N)N)NC(=O)[C@H](Cc2ccc(O)cc2)NC(=O)[C@@H]2CCCN2C(=O)[C@@H](CCCCN)NC1=O [Derivative of T140 peptide] |  | 37 |  |
| NCCCC[C@@H]1NC(=O)[C@H](CCCNC(N)=O)NC(=O)[C@H](Cc2ccc(O)cc2)NC(=O)[C@@H](NC(=O)[C@H](Cc2ccc3ccccc3c2)NC(=O)[C@H](CCCN=C(N)N)NC(=O)[C@@H](N)CCCNC(N)=O)CSSC[C@@H](C(=O)N[C@@H](CCCN=C(N)N)C(N)=O)NC(=O)[C@H](CCCNC(N)=O)NC(=O)[C@H](CCCN=C(N)N)NC(=O)[C@H](Cc2ccc(O)cc2)NC(=O)[C@@H]2CCCN2C(=O)[C@@H](CCCCN)NC1=O [Derivative of T140 peptide] |  | 6.6 |  |
| Nc1ccn([C@H]2CC[C@@H](CO)O2)c(=O)n1 [Dideoxycytidine] |  | 88 |  |
| NCCCC[C@@H]1NC(=O)[C@H](CCCN=C(N)N)NC(=O)[C@H](Cc2ccc(O)cc2)NC(=O)[C@@H](NC(=O)[C@@H](NC(=O)[C@H](CCCN=C(N)N)NC(=O)[C@@H](N)CCCN=C(N)N)c2ccc3ccccc3c2)CSSC[C@@H](C(=O)N[C@@H](CCCN=C(N)N)C(=O)O)NC(=O)[C@H](CCCNC(N)=O)NC(=O)[C@H](CCCN=C(N)N)NC(=O)[C@H](Cc2ccc(O)cc2)NC(=O)[C@@H]2CCCN2C(=O)[C@@H](CCCNC(N)=O)NC1=O [T140] | 23 |  | 4 |
